Results on one cell line are retold here after the supplement of paper PMC10307832.

Assay in all cases: relative viability (nuclei count vs DMSO), 5 days (fraction); higher = more cells survive
Compound in the experiment “Axitinib + Palbociclib”: CNC(=O)c1ccccc1Sc1ccc2c(/C=C/c3ccccn3)n[nH]c2c1 [Axitinib] + CC(=O)c1c(C)c2cnc(Nc3ccc(N4CCNCC4)cn3)nc2n(C2CCCC2)c1=O [Palbociclib] (partner 0.5 µM)
Put shortly:
(§1)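 Lung cancer cell lines in 1536-well plates got either a single drug or a fixed anchor-drug dose together with five library-drug doses (not always all listed) in √10 steps, by pin tool, on the day after seeding. Nuclei were counted after 5 days, and relative viability is the treated-to-vehicle ratio of nuclei counts. Values are medians of duplicate plates.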

Compound in the experiment “Bemcentinib + Crizotinib”: Nc1nc(Nc2ccc3c(c2)CC[C@@H](N2CCCC2)CC3)nn1-c1cc2c(nn1)-c1ccccc1CCC2 [Bemcentinib] + C[C@@H](Oc1cc(-c2cnn(C3CCNCC3)c2)cnc1N)c1c(Cl)ccc(F)c1Cl [Crizotinib] (partner 1 µM)
Put shortly:
as §1

Compound in experiment [1]: CC1=CC=C(C=C1)C(=O)CN2C3=C(CCCC3)SC2=N [Pifithrin_alpha] + C[C@@H](Oc1cc(-c2cnn(C3CCNCC3)c2)cnc1N)c1c(Cl)ccc(F)c1Cl [Crizotinib] (partner 1 µM)
An outline of the steps: as §1

Compound in the experiment “Axitinib + Decitabine”: CNC(=O)c1ccccc1Sc1ccc2c(/C=C/c3ccccn3)n[nH]c2c1 [Axitinib] + Nc1ncn([C@H]2C[C@H](O)[C@@H](CO)O2)c(=O)n1 [Decitabine] (partner 2 µM)
An outline of the steps: as §1

As to NCI-H650, the relative viability with Axitinib + Palbociclib (first compound 0.005 µM) stood at 0.327; with Axitinib + Palbociclib (first compound 0.01581 µM) it was 0.342; with Axitinib + Palbociclib (first compound 0.05 µM), 0.312; with Axitinib + Palbociclib (first compound 0.1581 µM) it was 0.321; in the experiment with Axitinib + Palbociclib (first compound 0.5 µM) it was 0.325; with Bemcentinib + Crizotinib (first compound 0.04 µM) it was 0.721. In addition, the relative viability with Bemcentinib + Crizotinib (first compound 0.1265 µM) was found to be 0.785; in the experiment with Bemcentinib + Crizotinib (first compound 0.4 µM), 0.679; with Bemcentinib + Crizotinib (first compound 1.265 µM), 0.703; in the experiment with Bemcentinib + Crizotinib (first compound 4 µM) it was 0.618; in experiment [1] (first compound 3.162 µM), 0.671; in experiment [1] (first compound 10 µM), 0.659. Besides, the relative viability turned out to be 0.434 in experiment [1] (first compound 31.62 µM); 0.743 in experiment [1] (first compound 100 µM); 0.287 in the experiment with Axitinib + Decitabine (first compound 0.005 µM); 0.335 in the experiment with Axitinib + Decitabine (first compound 0.01581 µM); 0.289 with Axitinib + Decitabine (first compound 0.05 µM); 0.31 in the experiment with Axitinib + Decitabine (first compound 0.1581 µM). Further, in the experiment with Axitinib + Decitabine (first compound 0.5 µM), the relative viability stood at 0.306.
